Where two headings read alike, the source gives them in different places.
Experiments:
PETNR = molecular target: PETNR; design: method as in earlier work; settings: PETNR−coenzyme analogue complex; cited from earlier work
L25I PETNR = L25I PETNR (Enterobacter cloacae, UniProt P71278, L26I); settings: for kobs1 / A2 (amplitude of kobs2 out of total absorbance change) / kobs2: 10 mM NADPH or 25 mM NADH, pH 7.0
L25A PETNR = L25A PETNR (Enterobacter cloacae, UniProt P71278, L26A); settings: for kobs1 / kobs2 / A2 (amplitude of kobs2 out of total absorbance change): 10 mM NADPH or 25 mM NADH, pH 7.0
WT PETNR [1] = molecular target: T1, WT PETNR (Enterobacter cloacae, UniProt P71278); assay: pH dependence of FMN reduction of WT PETNR in MTEN buffer; assay type: biochemical, Enterobacter Cloacae PB2; design: made in house; settings: for Isotope effect on ΔCp⧧ / Isotope effect on ΔHT0⧧ / Isotope effect on ΔST0⧧: (R)-[4-2H]-NADPH - NADPH
Experimental: (R)-[4-2H]-NADPH at pH 6, pH 7 and pH9 (A) and the corresponding temperature dependencies of the observed primary kinetic isotope effects (B). The measurements were performed in MTEN buffer (50 mM MES, 25 mM Tris, 25 mM ethanola-mine, and 100 mM NaCl), which has a useful buffering capacity and minimal change in ionic strength over the pH range 6-9 in which PETNR is stable; we attempted testing PETNR in pH 5 as well, but the enzyme is unstable at this pH. The observed rate constants of FMN reduction at pH 7 in MTEN buffer are essentially the same to those measured in 50 mM potassium phosphate buffer, pH 7 and similar observation are valid for the KIEs values (Table S3).The rate of FMN reduction is essentially insensitive to pH across the whole temperature range (5-40 °C), and also that KIEs values are essentially not affected by changes in pH (the rate of FMN reduction by (R)-[4-2H]-NADPH is independent of pH as well across all temperatures studied; see Table S3 for extracted thermodynamic parameters). Although these experiments cannot completely exclude any kinetic […]
of H-transfer and protonation (which would lead to pH-dependent rates) which makes it very likely that the observed rate are reporting directly on the H-transfer step.
Table S3. Extracted Thermodynamic Parameters from pH Dependence Studies.
(kJ mol-1) (J mol-1 K-1) (kJ mol-1 K-1)

WT PETNR [2] = molecular target: T1, WT PETNR; assay: Stopped-flow FMN reduction (reductive half-reaction, hydride transfer) of WT PETNR by coenzyme; settings: for kobs1 / A2 (amplitude of kobs2 out of total absorbance change) / kobs2: 10 mM NADPH or 25 mM NADH, pH 7.0
[3] = T0 = 298 K, fit of kobs1 (5–40 °C) to eq 1
[4] = deuterated minus protiated coenzyme, T0 = 298 K

Chain of L25A PETNR (P71278 entry or part of it L26A): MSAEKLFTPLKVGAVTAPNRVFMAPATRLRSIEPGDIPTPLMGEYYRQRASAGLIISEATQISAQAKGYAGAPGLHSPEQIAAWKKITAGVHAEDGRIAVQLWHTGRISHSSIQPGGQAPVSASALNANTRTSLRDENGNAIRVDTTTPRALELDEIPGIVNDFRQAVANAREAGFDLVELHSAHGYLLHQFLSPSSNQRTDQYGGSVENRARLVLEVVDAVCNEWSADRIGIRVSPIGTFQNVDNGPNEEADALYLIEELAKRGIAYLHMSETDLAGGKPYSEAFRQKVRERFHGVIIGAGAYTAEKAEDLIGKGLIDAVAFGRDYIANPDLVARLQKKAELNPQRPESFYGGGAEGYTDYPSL
T1 sequence (P71278 entry or part of it): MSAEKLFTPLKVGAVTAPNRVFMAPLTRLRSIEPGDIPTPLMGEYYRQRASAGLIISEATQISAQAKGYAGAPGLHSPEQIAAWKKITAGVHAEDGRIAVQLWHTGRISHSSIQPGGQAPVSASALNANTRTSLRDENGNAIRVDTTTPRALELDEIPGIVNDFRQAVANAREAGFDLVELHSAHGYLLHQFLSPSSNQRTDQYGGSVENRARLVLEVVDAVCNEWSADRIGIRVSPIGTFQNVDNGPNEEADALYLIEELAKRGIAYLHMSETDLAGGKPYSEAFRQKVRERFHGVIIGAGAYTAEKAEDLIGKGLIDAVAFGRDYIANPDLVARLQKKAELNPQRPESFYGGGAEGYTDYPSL
Chain of L25I PETNR (P71278 entry or part of it L26I): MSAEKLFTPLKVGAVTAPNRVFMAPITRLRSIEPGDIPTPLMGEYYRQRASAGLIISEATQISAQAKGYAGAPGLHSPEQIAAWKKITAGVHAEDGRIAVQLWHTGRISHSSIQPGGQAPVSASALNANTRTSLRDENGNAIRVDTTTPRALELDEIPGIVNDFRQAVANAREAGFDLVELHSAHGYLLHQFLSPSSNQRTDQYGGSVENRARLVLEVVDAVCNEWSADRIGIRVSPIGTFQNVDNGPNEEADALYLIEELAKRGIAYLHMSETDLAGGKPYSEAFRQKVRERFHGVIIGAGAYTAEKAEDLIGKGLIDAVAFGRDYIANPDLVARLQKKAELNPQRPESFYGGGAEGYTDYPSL

## NC(=O)C1=CN([C@@H]2O[C@H](COP(=O)(O)OP(=O)(O)OC[C@H]3O[C@@H](n4cnc5c(N)ncnc54)[C@H](O)[C@@H]3O)[C@@H](O)[C@H]2O)CCC1 [NADH4, 1,4,5,6-tetrahydro-NAD]
PETNR
  Kd: 140 µM

## [2H][C@@H]1C=CN([C@@H]2O[C@H](COP(=O)(O)OP(=O)(O)OC[C@H]3O[C@@H](n4cnc5c(N)ncnc54)[C@H](OP(=O)(O)O)[C@@H]3O)[C@@H](O)[C@H]2O)C=C1C(N)=O [(R)-[4-^2H]-NADPH]
L25I PETNR; 5 °C
  kobs1: 1.26 ± 0.02 s⁻¹
L25I PETNR; 15 °C
  kobs1: 2.46 ± 0.01 s⁻¹
L25I PETNR; 20 °C
  A2 (amplitude of kobs2 out of total absorbance change): 2.63 ± 0.15%
  kobs1: 3.42 ± 0.03 s⁻¹
  kobs2: 0.19 ± 0.04 s⁻¹
L25I PETNR; 25 °C
  A2 (amplitude of kobs2 out of total absorbance change): 3.59 ± 0.27%
  kobs1: 4.50 ± 0.02 s⁻¹
  kobs2: 0.27 ± 0.03 s⁻¹
L25I PETNR; 30 °C
  kobs1: 5.72 ± 0.06 s⁻¹
  kobs2: 0.28 ± 0.01 s⁻¹
L25I PETNR; 35 °C
  A2 (amplitude of kobs2 out of total absorbance change): 7.05 ± 0.36%
  kobs1: 7.20 ± 0.07 s⁻¹
  kobs2: 0.42 ± 0.07 s⁻¹
L25I PETNR; 40 °C
  A2 (amplitude of kobs2 out of total absorbance change): 12.46 ± 0.45%
  kobs1: 8.66 ± 0.09 s⁻¹
L25I PETNR; [3]
  ΔCp^⧧: –0.53 ± 0.09 kJ mol^–1 K^–1
  ΔHT0^⧧: 36.7 ± 0.5 kJ mol^–1
L25I PETNR; [4]
  Isotope Effect on ΔCp^⧧: –0.11 ± 0.11 kJ mol^–1 K^–1
  Isotope Effect on ΔHT0^⧧: 6.3 ± 0.7 kJ mol^–1
  Isotope Effect on ΔST0^⧧: 5.4 ± 2.5 J mol^–1 K^–1
L25A PETNR; 5 °C
  kobs1: 2.37 ± 0.01 s⁻¹
L25A PETNR; 10 °C
  kobs1: 3.33 ± 0.03 s⁻¹
L25A PETNR; 15 °C
  kobs1: 4.59 ± 0.03 s⁻¹
L25A PETNR; 20 °C
  kobs1: 6.14 ± 0.04 s⁻¹
L25A PETNR; 25 °C
  kobs1: 8.01 ± 0.22 s⁻¹
  kobs2: 0.03 ± 0.03 s⁻¹
L25A PETNR; 30 °C
  A2 (amplitude of kobs2 out of total absorbance change): 5.83 ± 0.60%
  kobs1: 10.24 ± 0.05 s⁻¹
  kobs2: 0.16 ± 0.03 s⁻¹
L25A PETNR; 35 °C
  A2 (amplitude of kobs2 out of total absorbance change): 14.06 ± 0.45%
  kobs1: 11.89 ± 0.07 s⁻¹
  kobs2: 0.17 ± 0.01 s⁻¹
L25A PETNR; 40 °C
  A2 (amplitude of kobs2 out of total absorbance change): 31.19 ± 1.07%
  kobs1: 12.39 ± 0.22 s⁻¹
  kobs2: 0.26 ± 0.02 s⁻¹
L25A PETNR; [3]
  ΔCp^⧧: –0.78 ± 0.15 kJ mol^–1 K^–1
  ΔHT0^⧧: 31.9 ± 1.1 kJ mol^–1
  ΔST0^⧧: –120.5 ± 3.7 J mol^–1 K^–1
L25A PETNR; [4]
  Isotope Effect on ΔCp^⧧: 0.14 ± 0.19 kJ mol^–1 K^–1
  Isotope Effect on ΔHT0^⧧: 8.6 ± 1.27 kJ mol^–1
  Isotope Effect on ΔST0^⧧: 13.3 ± 5.6 J mol^–1 K^–1
WT PETNR [1]; pH 6, MTEN buffer
  ΔCp⧧: -0.57 ± 0.15 kJ mol-1 K-1
  ΔHT0⧧: 7.89 ± 0.22 kcal/mol
  Isotope effect on ΔCp⧧: 0.01 ± 0.18 kJ mol-1 K-1
  Isotope effect on ΔHT0⧧: 1.39 ± 0.263 kcal/mol
  Isotope effect on ΔST0⧧: 3.7 ± 3.5 J mol-1 K-1
WT PETNR [1]; pH 7, MTEN buffer
  ΔCp⧧: -0.54 ± 0.09 kJ mol-1 K-1
  ΔHT0⧧: 8.27 ± 0.12 kcal/mol
  ΔST0⧧: -115.0 ± 1.8 J mol-1 K-1
  Isotope effect on ΔCp⧧: 0.07 ± 0.12 kJ mol-1 K-1
  Isotope effect on ΔHT0⧧: 1.67 ± 0.17 kcal/mol
  Isotope effect on ΔST0⧧: 7.7 ± 2.4 J mol-1 K-1
WT PETNR [1]; pH 9, MTEN buffer
  ΔCp⧧: -0.48 ± 0.07 kJ mol-1 K-1
  ΔHT0⧧: 8.48 ± 0.096 kcal/mol
  ΔST0⧧: -111.9 ± 1.3 J mol-1 K-1
  Isotope effect on ΔCp⧧: -0.03 ± 0.13 kJ mol-1 K-1
  Isotope effect on ΔHT0⧧: 1.58 ± 0.19 kcal/mol
  Isotope effect on ΔST0⧧: 6.7 ± 2.6 J mol-1 K-1
WT PETNR [2]; 5 °C
  kobs1: 1.51 ± 0.01 s⁻¹
WT PETNR [2]; 10 °C
  kobs1: 2.13 ± 0.01 s⁻¹
WT PETNR [2]; 15 °C
  kobs1: 2.90 ± 0.01 s⁻¹
WT PETNR [2]; 20 °C
  kobs1: 3.95 ± 0.02 s⁻¹
WT PETNR [2]; 25 °C
  kobs1: 5.20 ± 0.04 s⁻¹
WT PETNR [2]; 30 °C
  kobs1: 6.59 ± 0.04 s⁻¹
WT PETNR [2]; 35 °C
  A2 (amplitude of kobs2 out of total absorbance change): 2.54 ± 0.53%
  kobs1: 8.48 ± 0.03 s⁻¹
  kobs2: 1.22 ± 0.45 s⁻¹
WT PETNR [2]; 40 °C
  A2 (amplitude of kobs2 out of total absorbance change): 3.41 ± 0.65%
  kobs1: 9.96 ± 0.18 s⁻¹
  kobs2: 1.11 ± 0.24 s⁻¹
WT PETNR [2]; [3]
  ΔCp^⧧: –0.32 ± 0.04 kJ mol^–1 K^–1
  ΔHT0^⧧: 36.8 ± 0.3 kJ mol^–1
WT PETNR [2]; [4]
  Isotope Effect on ΔCp^⧧: 0.18 ± 0.06 kJ mol^–1 K^–1
  Isotope Effect on ΔHT0^⧧ (ΔΔHT0^⧧): 6.4 ± 0.4 kJ mol^–1
  Isotope Effect on ΔST0^⧧: 5.8 ± 1.5 J mol^–1 K^–1

## NC(=O)C1=CN([C@@H]2O[C@H](COP(=O)(O)OP(=O)(O)OC[C@H]3O[C@@H](n4cnc5c(N)ncnc54)[C@H](OP(=O)(O)O)[C@@H]3O)[C@@H](O)[C@H]2O)CCC1 [NADPH4]
PETNR
  Kd: 130 µM

Reference: paper PMC6516726 (ACS Catalysis, 2018)
